Measured values as given in ChEMBL document CHEMBL2069304, “Indole alkaloids from two cultured cyanobacteria, Westiellopsis sp. and Fischerella muscicola” (Bioorg Med Chem, 2012).
Converted amounts (≈) assume the structure as drawn. The source made the active and inactive calls. The calls are words filed in the database; no cut-off is given here.

Columns and labels:
Staphylococcus aureus = experiment: Antimicrobial activity against Staphylococcus aureus by broth microdilution assay; assay type: functional
Candida albicans = experiment: Antimicrobial activity against Candida albicans by broth microdilution assay; assay type: functional
[1] = system: Mycobacterium tuberculosis; experiment: microbe, parasite or virus in culture; conditions: H37Rv
Description: Antimicrobial activity against Mycobacterium tuberculosis H37Rv by microplate Alamar blue assay

SF-268 = experiment: Cytotoxicity against human SF268 cells incubated for 3 days by SRB assay; assay type: functional, cell-based; conditions: SF-268, 72 h
MCF7 = experiment: Cytotoxicity against human MCF7 cells incubated for 3 days by SRB assay; assay type: functional, cell-based; conditions: MCF7, 72 h
[2] = system: Mycolicibacterium smegmatis; experiment: Antimicrobial activity against Mycobacterium smegmatis by broth microdilution assay; assay type: functional
IMR-90 = experiment: Cytotoxicity against human IMR90 cells incubated for 3 days by SRB assay; assay type: cell-based; conditions: IMR-90, 72 h
Acinetobacter baumannii = experiment: Antimicrobial activity against Acinetobacter baumannii by broth microdilution assay; assay type: functional
Escherichia coli = experiment: Antimicrobial activity against Escherichia coli by broth microdilution assay; assay type: functional
Vero = experiment: Cytotoxicity against african green monkey Vero cells by CellTiter 96 aqueous nonradioactive cell proliferation assay; assay type: cell-based; conditions: Chlorocebus sabaeus
NCI-H460 = experiment: Cytotoxicity against human NCI-H460 cells incubated for 3 days by SRB assay; assay type: functional, cell-based; conditions: NCI-H460, 72 h
HT-29 = experiment: Cytotoxicity against human HT-29 cells by CellTiter 96 Aqueous One solution cell proliferation assay; assay type: functional, cell-based
Homo sapiens = species: Homo sapiens; experiment: Inhibition of 20S proteasome at 25 ug/ml
[3] = Homo sapiens, HT-29, read-out: IC50

Molecule | MIC (Staphylococcus aureus) | MIC (Candida albicans) | MIC [1] | IC50 (SF-268) | IC50 (MCF7) | MIC [2] | IC50 (IMR-90) | MIC (Acinetobacter baumannii) | MIC (Escherichia coli) | IC50 (Vero) | IC50 (NCI-H460) | IC50 (HT-29; ht-29) | IC50 (HT-29; [3]) | inhibition (Homo sapiens)
C=C[C@]1(C)CC2C(=O)c3c(NC=O)cccc3C(C)(C)[C@H]2C[C@H]1O (relative stereo) | > 100 µM | > 100 µM | > 100 µM | > 100 µM | > 100 µM | > 100 µM | > 100 µM | > 100 µM | > 100 µM | > 100 µM | > 100 µM | Not Active | – | –
[C-]#[N+]C1=C2c3c[nH]c4cccc(c34)C(C)(C)[C@H]2C[C@@H](Cl)[C@]1(C)C=C [HAPALINDOLE I] | > 100 µM | > 100 µM | 2 µM (≈ 0.674 µg/mL) | 93.1 µM | > 100 µM | > 100 µM | > 100 µM | > 100 µM | > 100 µM | > 100 µM | 68.5 µM | Not Active | – | –
[C-]#[N+][C@@H]1[C@H]2c3c[nH]c4cccc(c34)C(C)(C)[C@H]2CC[C@]1(C)C=C [HAPALINDOLE J] | 8.4 µM (≈ 2.56 µg/mL) | 0.7 µM (≈ 0.213 µg/mL) | 4.3 µM (≈ 1.31 µg/mL) | 16.9 µM | 43.7 µM | 39 µM (≈ 11.9 µg/mL) | 39.1 µM | > 100 µM | > 100 µM | – | 12 µM | – | 28.6 µM | –
[C-]#[N+][C@@H]1[C@H]2c3c([nH]c4ccccc34)C(C)(C)[C@H]2C[C@@H](Cl)[C@@]1(C)C=C [FISCHERINDOLE L] | 6.4 µM (≈ 2.17 µg/mL) | 1.2 µM (≈ 0.407 µg/mL) | 22 µM (≈ 7.46 µg/mL) | 17.4 µM | 28.3 µM | 63 µM (≈ 21.3 µg/mL) | 46.3 µM | > 100 µM | > 100 µM | < 9.2 µM | 15.1 µM | – | – | –
[C-]#[N+]C1=C2c3c[nH]c4cccc(c34)C(C)(C)[C@H]2CC[C@]1(C)C=C (relative stereo) | > 100 µM | > 100 µM | > 100 µM | – | – | > 100 µM | – | > 100 µM | > 100 µM | > 100 µM | – | – | – | –
CC[C@@]1(O)C(=O)OCc2c1cc1n(c2=O)Cc2cc3ccccc3nc2-1 [CAMPTOTHECIN] | – | – | – | 0.07 µM | 0.08 µM | – | 0.43 µM | – | – | – | 0.002 µM | – | – | –
C[C@@H]1[C@H](O)[C@@H](C)/C=C/C=C/C=C/C=C/C=C/C=C/C=C/[C@H](O[C@@H]2O[C@H](C)[C@@H](O)[C@H](N)[C@@H]2O)C[C@@H]2O[C@](O)(C[C@@H](O)C[C@@H](O)[C@H](O)CC[C@@H](O)C[C@@H](O)CC(=O)O[C@H]1C)C[C@H](O)[C@H]2C(=O)O [AMPHOTERICIN B] | – | 0.12 µM (≈ 0.111 µg/mL) | – | – | – | – | – | – | – | – | – | – | – | –
[C-]#[N+][C@@H]1[C@H]2c3c[nH]c4cccc(c34)C(C)(C)[C@@H]2CC[C@]1(C)C=C [HAPALINDOLE H] | – | – | – | 10.6 µM | 16.3 µM | – | 31.9 µM | – | – | – | 8.5 µM | – | – | –
CCCCCC#CC#C/C=C/CCCC[C@H]1C[C@@H](C)C(=O)N1 [FISCHERELLIN B] | > 100 µM | > 100 µM | 23 µM (≈ 6.89 µg/mL) | – | – | > 100 µM | – | > 100 µM | > 100 µM | > 100 µM | – | – | – | –
CC1(C)S[C@@H]2[C@H](NC(=O)[C@H](N)c3ccccc3)C(=O)N2[C@H]1C(=O)O [AMPICILLIN] | 1.54 µM (≈ 0.538 µg/mL) | – | – | – | – | – | – | – | – | – | – | – | – | –
CO[C@H]1/C=C/O[C@@]2(C)Oc3c(C)c(O)c4c(O)c(c(/C=N/N5CCN(C)CC5)c(O)c4c3C2=O)NC(=O)/C(C)=C\C=C\[C@H](C)[C@H](O)[C@@H](C)[C@@H](O)[C@@H](C)[C@H](OC(C)=O)[C@@H]1C [RIFAMPIN] | – | – | 0.24 µM (≈ 0.198 µg/mL) | – | – | – | – | – | – | – | – | – | – | –
CN[C@@H]1[C@H](O[C@H]2[C@H](O[C@H]3[C@H](O)[C@@H](O)[C@H](N=C(N)N)[C@@H](O)[C@@H]3N=C(N)N)O[C@@H](C)[C@]2(O)C=O)O[C@@H](CO)[C@H](O)[C@H]1O [STREPTOMYCIN] | – | – | – | – | – | 0.41 µM (≈ 0.238 µg/mL) | – | – | – | – | – | – | – | –
[C-]#[N+][C@@H]1C2=C3C(=O)Nc4cccc(c43)C(C)(C)[C@H]2C[C@@H](Cl)[C@]1(C)C=C [ANHYDROHAPALOXINDOLE A] | 27.3 µM (≈ 9.63 µg/mL) | 1.9 µM (≈ 0.67 µg/mL) | 16.2 µM (≈ 5.72 µg/mL) | 26 µM | 56.7 µM | > 100 µM | 80.1 µM | > 100 µM | > 100 µM | – | 18.7 µM | – | – | –
[C-]#[N+][C@@H]1[C@H]2c3c[nH]c4cccc(c34)C(C)(C)[C@H]2C[C@@H](Cl)[C@]1(C)C=C [HAPALINDOLE A] | 3.9 µM (≈ 1.32 µg/mL) | 1.2 µM (≈ 0.407 µg/mL) | < 0.6 µM | 16.3 µM | 30.7 µM | 18.2 µM (≈ 6.17 µg/mL) | 39.1 µM | > 100 µM | 8 µM (≈ 2.71 µg/mL) | 25.6 µM | 17 µM | – | – | –
[C-]#[N+][C@H]1C(=C)[C@@H](C=C)C[C@@H]2[C@@H]1c1c[nH]c3cccc(c13)C2(C)C (relative stereo) | 9.1 µM (≈ 2.75 µg/mL) | 2.5 µM (≈ 0.756 µg/mL) | 2.5 µM (≈ 0.756 µg/mL) | 23.5 µM | 35.4 µM | 78.8 µM (≈ 23.8 µg/mL) | 113 µM | > 100 µM | > 100 µM | – | 23 µM | – | 24.8 µM | –
[C-]#[N+][C@@H]1[C@H](c2c[nH]c3ccccc23)[C@@H](C(=C)C)CC[C@]1(C)C=C [HAPALINDOLE C] | – | – | – | 88.6 µM | > 100 µM | – | > 100 µM | – | – | – | 53.7 µM | – | – | inactive
C[C@H]1c2cccc(O)c2C(=O)C2=C(O)[C@]3(O)C(=O)C(C(N)=O)=C(O)[C@@H](N(C)C)[C@@H]3[C@@H](O)[C@@H]21 [DOXYCYCLINE] | – | – | – | – | – | – | – | 0.35 µM (≈ 0.156 µg/mL) | – | – | – | – | – | –
GENTAMICIN | – | – | – | – | – | – | – | – | 2.3 µM | – | – | – | – | –
[C-]#[N+][C@@H]1[C@@H]2c3c[nH]c4cccc(c34)C(C)(C)[C@H]2CC[C@]1(C)C=C [HAPALINDOLE U] | – | – | – | > 100 µM | > 100 µM | – | > 100 µM | – | – | – | > 100 µM | – | 52.6 µM | –
